From US5985926A, “Method for inhibiting intracellular viral replication” (Cell Therapeutics, Inc., priority 1997, dated 1999) come the findings set out here.

Entries after “also recorded” stand apart in the source; their conditions may differ.

The test system of one test is AP mRNA in 293tat cells. The test can be described thus: AP mRNA level in 293tat cells, Northern blot. The following applies: with TNF-α or IL-1β. In kind it is cell-based, human. On the procedure:
Nuclear extracts (A) from 293tat cells were tested by EMSA for activation of NFκB. A radiolabeled 40-mer covering the NFκB sequences in the HIV promoter was used as a probe. Cells were incubated with CT2576 at 12 μM, human TNF-α at 40 ng/ml or IL-1β at 1 ng/ml, or pre-incubated for 30 min. with CT2576 and then stimulated with TNF-α or IL-1β for 18 hr prior to making extracts. RNA was extracted from 293tat cells (B) after treatment with CT2576 without or with TNF-α or IL-1β for 18 hr. Northern blots analysis were performed using probes derived from AP cDNA and G3PDH cDNA as a control for normalization of mRNA level. AP activity was determined in cell supernatants from the various samples.
NFκB binding activity in nuclear extracts (Dignam et al., Nucleic Acids Res. 11:1475-1489, 1983) of cells was measured by electrophoretic mobility-shift assay (EMSA) (Carthew et al., Cell 43:439-448, 1985) using 5'-labeled double-stranded synthetic DNA with two NF-κB motifs. Northern blot analysis was performed with total RNA run on 1% agarose/formaldehyde gel and probed with ^32 P-labeled cDNA of AP and glyceraldehyde-3-phosphate dehydrogenase (G3PDH).

The subject of test [1] is PA (phosphatidic acid) formation in tat-transfected and tar-transfected cells. In words: PA mass / myrPA formation in serum-stimulated EB293, 293tat and 293tar cells. In kind it is cell-based, human. Here is the method:
Transformed and serum-stimulated cells were measured for total PA mass according to the methods described herein. […] The columns in FIG. 18 represent: (1) EB293 cells plus serum, (2) EB293 cells plus serum plus CT3556 (10 μM.), (3) 293tat cells plus serum, (4) 293tat cells plus serum plus CT3556 (10 μM.), (5) 293tar cells plus serum, and (6) 293tar cells plus serum plus CT3556 (10 μM.).
This procedure begins with those cells that would be normally infected with a virus, such as a retrovirus. However, it is not necessary to utilize a cell line containing a retroviral genome, such as U1 cells. In view of the necessity to utilize containment facilities when using an infected cell line, it is preferable to utilize a macrophage cell line that is not infected. Examples of appropriate macrophage cell lines include, U937, THP1, U1, and P288s (available from standard sources, such as ATCC). The cells are stimulated with a stimulant with or without a candidate drug. Examples of stimulants include 3-5% serum, such as fetal calf serum, or tumor necrosis factor (TNF) (e.g., 20 ng/ml) both of which are standard laboratory reagents. After a time course (within 5 minutes, preferably within 1 minute), the cells are immersed in ice cold methanol to stop any cellular signaling reactions.
One must first quantitatively and qualitatively separate PAs from the other lipids found in serum by a chemical extraction of lipids and high performance liquid chromatography (HPLC) to separate and detect PAs. Chemical extraction can be accomplished, for example, by the method of Bligh et al. (Canadian J. Biochem. Physiol. 37:911-917, 1959) or that of Folch et al. (J. Biol. Chem. 226:497-509, 1957). Briefly, the method of Bligh et al. involves an organic extraction of lipids from biological tissue homogenates or fluids. One volume of sample and three volumes of methanol:chloroform (2:1) are vigorously shaken for 2 min. One volume of chloroform is added and then shaken vigorously for 30 sec. One volume of water is added and then shaken vigorously for 30 sec. The mixture is filtered and the upper aqueous layer is discarded. The lower organic layer contains a mixture of lipid classes. The method of Folch et al. involves the extraction of lipids from biological tissue homogenates or body fluids. One volume of sample plus 20 volumes of chloroform:methanol (2:1) are vigorously shaken for 2 min. The mixture is filtered and an amount of 0.1 N KCl equal to 20% of the extraction mixture volume is added and the mixture is shaken vigorously for 2 min. The aqueous and organic phases are allowed to separate. The upper aqueous layer is discarded. The lower organic layer contains a mixture of lipid classes. Free fatty acids and neutral lipids can be separated from phospholipids by normal phase high performance liquid chromatography (HPLC) by modifying the method of Van Kessel et al. (Biochim et Biophys Acta 486:524-530, 1977). This method involves separation of lipids into their major classes by normal phase (silica) high performance liquid chromatography (HPLC). A 5 micron, 25 cm×0.45 cm silica HPLC column is connected to a binary solvent delivery system followed with a UV detector. The lipid sample is injected on the column and a solvent gradient is run at 1.0 ml/min. […]
Transformed and serum-stimulated cells were measured for total PA mass according to the methods described herein. […]

For `CCCCCCCCNCC(O)CCCCCCCCCn1c(=O)c2c(ncn2C)n(C)c1=O` (stereo not drawn) [CT2576, 1-(11-octylamino-10-hydroxyundecyl)-3,7-dimethylxanthine], in the test with AP mRNA in 293tat cells, the “AP transcript / mRNA steady-state level” value was “increase in mRNA level; also recorded: did not block expression at the transcription stage”. Besides, the “inhibition of myrPA formation in stimulated cells” value in test [1] (10 μM, tat-transfected cells stimulated with serum) is listed as “inhibited myrPA formation in stimulated cells”. The “total PA mass, dose response” value in test [1] (EB293 cells with tat expression plasmid, serum, 0 to one minute (FIG. 20)) is listed as “dose response relationship”.
